The results in this text go back to US10407409B2, “6-(5-hydroxy-1H-pyrazol-1-yl)nicotinamide inhibitors of PHD” (Takeda Pharmaceutical Company Limited, priority 2013, dated 2019).

Assay [1] relates to HIF1a protein in H9c2 rat cardiomyocytes. The experiment in a line: Cell-based HIF-alpha stabilization assay (inhibition of PHD in cells). To be noted: 24 hrs compound incubation, HIF1a protein by ELISA; for EC50: Rattus norvegicus, H9c2, 24 h, read-out: Inhibition of PHD in cells (pEC50) (converted). The protocol:
Example B Inhibition of PHD in Cells
PHD Inhibition is Determined Using (Secondary Assay)
Cell-Based HIF-Alpha Stabilization Assay:
H9c2 rat cardiomyocytes (ATCC) were seeded in 96-well tissue culture microplates and cultured for 24 hours prior to addition of compounds (11 point range of serial dilutions) or dimethylsulfoxide vehicle. After 24 hrs of compound incubation, whole cell extracts were prepared by lysing cells in cell extraction buffer containing protease and phosphatase inhibitors (Meso-Scale Discovery). HIF1a protein content was assessed by ELISA (Meso-Scale Discovery) and expressed as a % relative to the maximum response obtained from the positive control, desferrioxamine (Sigma-Aldrich). Compound EC50s were obtained by curve-fitting using XLfit4 MicroSoft Excel curve-fitting software. Compound EC50pos were obtained using XLfit4 to calculate the compound concentration that results in 50% of the desferrioxamine maximum response.
(In general: ELISA stands for enzyme-linked immunosorbent assay.)

Assay [2] has as its target PHD2 enzyme (residues 181-417) (Homo sapiens (Human), UniProt Q9GZT9). Put plainly: Inhibition of PHD enzyme (LC/MS peptide hydroxylation assay). The class given is biochemical. The note with it: PHD2 (residues 181-417) 5 nM, 60 min pre-incubation; -log(IC50), IC50 molar. The procedure: Example A Inhibition of PHD Enzyme
The IC50 values for the PHD2 enzyme (residues 181-417) were determined by mixing increasing amounts of inhibitor with a fixed amount of enzyme (5 nM, final concentration) and Biotin labeled peptide (Biotin-Asp-Leu-Glu-Met-Leu-Ala-Pro-Tyr-Ile-Pro-Met-Asp-Asp-Asp-Phe-Gln-Leu, 1 uM final concentration) and 2-Oxyglutarate (2 uM final concentration) in 50 mM HEPES, 50 mM KCl, 0.5 mM TCEP, 2 uM FeCl2, 0.1 mg/ml BSA, at pH 7.3. The reaction was conducted by pre-incubating the enzyme in the presence of inhibitor for 60 min at room temperature. The activity of the free enzyme was measured by adding the peptide, the 2-Oxoglutarate (see above for final concentrations), and Ascorbic Acid (1 mM final concentration). The enzymatic activity was quenched after 60 min by adding an excess of a tight binding inhibitor to the assay mixture. The amount of product released was measured by using a LC/MS system (Agilent HPLC with Applied Biosystems API3000 Mass Spectrometer). Data were analyzed using the classical isotherm equation for the determination of IC50 values and are pIC50, i.e., −log(IC50), where IC50 is molar concentration and are reported as pIC50, i.e., −log(IC50), where IC50 is molar concentration.

Where a name gives a salt, the structure may show the parent alone.

Sequence of PHD2 enzyme (residues 181-417) (Q9GZT9 181-417): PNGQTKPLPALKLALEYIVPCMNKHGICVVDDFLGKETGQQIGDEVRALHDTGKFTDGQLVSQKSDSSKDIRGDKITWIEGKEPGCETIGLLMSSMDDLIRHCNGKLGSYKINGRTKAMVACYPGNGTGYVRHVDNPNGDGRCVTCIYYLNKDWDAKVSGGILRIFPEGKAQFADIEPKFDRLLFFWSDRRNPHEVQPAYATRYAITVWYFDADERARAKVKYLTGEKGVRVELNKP

Regarding `COc1cc(-c2cnn(-c3ccc(C(=O)NCCC4CCOCC4)cn3)c2O)ccn1` [Example 11, 6-(5-hydroxy-4-(2-methoxypyridin-4-yl)-1H-pyrazol-1-yl)-N-(2-(tetrahydro-2H-pyran-4-yl)ethyl)nicotinamide], the EC50 in assay [1] is 537 nM.

On to `COc1cc(-c2cnn(-c3ccc(C(=O)NCCCN4CCCCC4)cn3)c2O)ccn1` [Example 18, 6-(5-hydroxy-4-(2-methoxypyridin-4-yl)-1H-pyrazol-1-yl)-N-(3-(piperidin-1-yl)propyl)nicotinamide], for which the EC50 in assay [1] was 933 nM. As for `COc1cc(-c2cnn(-c3ccc(C(=O)NCCCN4CCCC4)cn3)c2O)ccn1` [Example 19, 6-(5-hydroxy-4-(2-methoxypyridin-4-yl)-1H-pyrazol-1-yl)-N-(3-(pyrrolidin-1-yl)propyl)nicotinamide], in assay [1], the EC50 was 1380 nM.

`COc1cc(-c2cnn(-c3ccc(C(=O)NCCCn4ccnc4)cn3)c2O)ccn1` [Example 21, N-(3-(1H-imidazol-1-yl)propyl)-6-(5-hydroxy-4-(2-methoxypyridin-4-yl)-1H-pyrazol-1-yl)nicotinamide]: the “Inhibition of PHD in cells (pEC50)” value in assay [1] was 6.46.

Take `COc1cc(-c2cnn(-c3ccc(C(=O)NCCC4CCCN4C)cn3)c2O)ccn1` (centres unmarked) [Example 23, 6-(5-hydroxy-4-(2-methoxypyridin-4-yl)-1H-pyrazol-1-yl)-N-(2-(1-methylpyrrolidin-2-yl)ethyl)nicotinamide]: the EC50 in assay [1] is 1000 nM. Turning to `COc1cc(-c2cnn(-c3ccc(C(=O)NCCCN4CCCCC4C)cn3)c2O)ccn1` (centres unmarked) [Example 29, 6-(5-hydroxy-4-(2-methoxypyridin-4-yl)-1H-pyrazol-1-yl)-N-(3-(2-methylpiperidin-1-yl)propyl)nicotinamide], in assay [1], the EC50 is 871 nM.

In the case of `N#Cc1ccc(-c2cnn(-c3ccc(C(=O)NC4CCc5ccc(Cl)cc54)cn3)c2O)cc1` (centres unmarked) [Example 79, N-(6-chloro-2,3-dihydro-1H-inden-1-yl)-6-(4-(4-cyanophenyl)-5-hydroxy-1H-pyrazol-1-yl)nicotinamide], the EC50 in assay [1] was 1320 nM.

For the compound `CN1CCC(NC(=O)c2ccc(-n3ncc(-c4ccc(C#N)cc4)c3O)nc2)CC1=O` (centres unmarked) [Example 82, 6-(4-(4-cyanophenyl)-5-hydroxy-1H-pyrazol-1-yl)-N-(1-methyl-2-oxopiperidin-4-yl)nicotinamide], the EC50 in assay [1] is 4790 nM. As to `COc1ccc2c(c1)C(NC(=O)c1ccc(-n3ncc(-c4ccc(C#N)cc4)c3O)nc1)CC2` (centres unmarked) [Example 83, 6-(4-(4-cyanophenyl)-5-hydroxy-1H-pyrazol-1-yl)-N-(6-methoxy-2,3-dihydro-1H-inden-1-yl)nicotinamide], the EC50 in assay [1] was 1780 nM.

Regarding `C[C@@H](NC(=O)c1ccc(-n2ncc(-c3ccc(C#N)cc3)c2O)nc1)C1CC1` [Example 88, (R)-6-(4-(4-cyanophenyl)-5-hydroxy-1H-pyrazol-1-yl)-N-(1-cyclopropylethyl)nicotinamide], the “Inhibition of PHD in cells (pEC50)” value in assay [1] was 5.50. With `COCC1(NC(=O)c2ccc(-n3ncc(-c4ccc(C#N)cc4C)c3O)nc2)CC1` [Example 118A, 6-(4-(4-cyano-2-methylphenyl)-5-hydroxy-1H-pyrazol-1-yl)-N-(1-(methoxymethyl)cyclopropyl)nicotinamide], in assay [1], the EC50 is 79.4 nM. Take `CNCCCNC(=O)c1ccc(-n2ncc(-c3ccc(C#N)cc3)c2O)nc1` [Example 272, 6-(4-(4-cyanophenyl)-5-hydroxy-1H-pyrazol-1-yl)-N-(3-(methylamino)propyl)nicotinamide hydrochloride]: the “PHD Inhibition (pIC50)” value in assay [2] turned out to be 7.03. In the case of `Cc1cc(C#N)ccc1-c1cnn(-c2ccc(C(=O)N3CCN4CCCC4C3)cn2)c1O` (centres unmarked) [Example 407, 4-(5-hydroxy-1-(5-(octahydropyrrolo[1,2-a]pyrazine-2-carbonyl)pyridin-2-yl)-1H-pyrazol-4-yl)-3-methylbenzonitrile], the “PHD Inhibition (pIC50)” value in assay [2] was 8.23. Consider `CCCN1CCCN(C(=O)c2ccc(-n3ncc(-c4ccc(C#N)cc4C)c3O)nc2)CC1` [Example 424, 4-(5-hydroxy-1-(5-(4-propyl-1,4-diazepane-1-carbonyl)pyridin-2-yl)-1H-pyrazol-4-yl)-3-methylbenzonitrile], for which the “PHD Inhibition (pIC50)” value in assay [2] turned out to be 7.70.
